The record followed here is patent US20240116922A1, “IMIDAZO[1,2-A]PYRIDINE DERIVATIVES AS IRAK4 INHIBITORS AND THEIR USE IN THE TREATMENT OF DISEASE” (BIOGEN MA INC., priority 2020, published 2024).

Converted amounts (≈) assume the structure as drawn. Where a name gives a salt, the structure may show the parent alone.

The target in one data set is IRAK4 (Homo sapiens (Human), UniProt Q9NWZ3). Description: IRAK4 MSD biochemical assay (2-hour 1 mM ATP). As to conditions: 0.1 nM IRAK4, 1 mM ATP, 2 hour at room temperature.
A short description of data set [1]: Kinetic solubility assay (CLND), pH 6.8. As to conditions: aqueous buffer, kinetic from dmso stock; potassium phosphate buffer pH 6.8, 2% DMSO, 24 hours at ambient temperature. In kind it is physicochemical.
Data set [2] in a line: Kpuu assay (in vivo brain-to-plasma unbound partition). As to conditions: brain (unbound) versus plasma (unbound); intravenous infusion 4 to 24 h; unbound brain/plasma ratio; read-out: Brain Kpu, u.
Method: For the brain-to-plasma partition coefficient (Kp) evaluation, a dosing solution was intravenously infused into animals at a constant flow rate for 4 to 24 h. Blood samples were serially collected during infusion, and CSF and brain samples were harvested at the end of infusion.
Tissue samples were typically homogenized in phosphate buffer saline (PBS) using a bead ruptor.
CSF samples were typically diluted with 8% BSA in PBS to prevent from non-specific binding. Artificial CSF (aCSF) is used as the surrogate matrix.
Calibration curves were prepared by spiking the analyte(s) into blank matrices, which were processed together with plasma, tissue homogenate and/or CSF samples by protein precipitation using a proper organic solvent (e.g. acetonitrile and methanol) containing generic analogue internal standards (e.g. verapamil, chrysin and glyburide). Matrix matching was used when analyzing multiple matrices in the same run. Samples above the upper limit of quantitation (ULOQ) needed to be diluted into the calibration range using either a pre-extraction or post-extraction dilution approach.
Processed samples were analyzed by LC-MS/MS using a proper method performing within the acceptable sensitivity, selectivity, precision and accuracy. For an analytical run to be accepted, over 75% of the calibration standards in the dual calibration curves needed to be within 20% of the nominal concentrations.
Brain concentrations were compared against plasma concentrations at the corresponding timepoint for the calculation of partition coefficient (Kp).
Unbound drug partition coefficient (Kpuu), defined as the ratio of unbound drug partition across the blood-brain barrier, was calculated using the equation below:
[formula] • Cb: measured total drug concentration in brain • Fub: unbound drug fraction in brain • Cp: measured total drug concentration in plasma • Fup: unbound drug fraction in plasma
The unbound fraction of the test compound was determined based on the protocols described below.
% Free=(PAR of buffer side/PAR of plasma side)*100 • PAR—Peak area ratio (PAR) • Fu % Free. 100 • Fu=fraction unbound
In another data set the target is MDR1 (Homo sapiens (Human), UniProt P08183). Description: in vitro. The following applies: MDCK-MDR1.
Chain of MDR1 (P08183 whole entry): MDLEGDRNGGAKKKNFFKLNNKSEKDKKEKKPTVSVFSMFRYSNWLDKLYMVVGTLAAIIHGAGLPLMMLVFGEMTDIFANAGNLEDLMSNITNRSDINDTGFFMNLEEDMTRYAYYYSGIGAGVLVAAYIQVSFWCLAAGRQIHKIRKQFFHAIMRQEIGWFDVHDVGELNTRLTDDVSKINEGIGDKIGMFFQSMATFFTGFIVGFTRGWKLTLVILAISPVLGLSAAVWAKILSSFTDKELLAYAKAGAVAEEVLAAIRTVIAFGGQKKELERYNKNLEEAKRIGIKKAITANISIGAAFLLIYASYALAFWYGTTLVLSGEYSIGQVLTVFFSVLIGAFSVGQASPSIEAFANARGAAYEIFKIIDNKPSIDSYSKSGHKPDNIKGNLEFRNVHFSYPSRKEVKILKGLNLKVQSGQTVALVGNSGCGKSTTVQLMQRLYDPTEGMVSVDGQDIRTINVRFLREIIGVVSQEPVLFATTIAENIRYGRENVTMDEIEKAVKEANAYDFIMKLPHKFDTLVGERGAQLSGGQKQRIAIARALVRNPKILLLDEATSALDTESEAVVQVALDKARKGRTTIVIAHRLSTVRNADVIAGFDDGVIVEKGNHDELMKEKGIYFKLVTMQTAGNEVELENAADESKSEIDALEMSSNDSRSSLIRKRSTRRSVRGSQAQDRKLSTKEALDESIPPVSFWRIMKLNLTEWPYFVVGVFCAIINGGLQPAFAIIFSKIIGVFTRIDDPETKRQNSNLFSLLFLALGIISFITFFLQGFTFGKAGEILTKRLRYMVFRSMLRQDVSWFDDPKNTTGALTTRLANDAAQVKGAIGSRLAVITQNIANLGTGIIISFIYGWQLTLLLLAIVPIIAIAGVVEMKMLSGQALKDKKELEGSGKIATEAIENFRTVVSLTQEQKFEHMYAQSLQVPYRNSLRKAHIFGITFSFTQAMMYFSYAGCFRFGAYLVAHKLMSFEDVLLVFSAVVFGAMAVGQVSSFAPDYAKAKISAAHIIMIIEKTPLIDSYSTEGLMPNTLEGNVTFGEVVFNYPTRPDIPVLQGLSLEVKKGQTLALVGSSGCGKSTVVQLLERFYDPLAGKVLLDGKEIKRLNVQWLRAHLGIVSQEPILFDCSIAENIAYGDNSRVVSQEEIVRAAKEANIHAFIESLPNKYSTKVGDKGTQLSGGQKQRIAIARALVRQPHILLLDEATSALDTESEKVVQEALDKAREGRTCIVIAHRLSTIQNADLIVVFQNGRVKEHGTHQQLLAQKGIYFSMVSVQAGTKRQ

Chain of IRAK4 (Q9NWZ3 whole entry): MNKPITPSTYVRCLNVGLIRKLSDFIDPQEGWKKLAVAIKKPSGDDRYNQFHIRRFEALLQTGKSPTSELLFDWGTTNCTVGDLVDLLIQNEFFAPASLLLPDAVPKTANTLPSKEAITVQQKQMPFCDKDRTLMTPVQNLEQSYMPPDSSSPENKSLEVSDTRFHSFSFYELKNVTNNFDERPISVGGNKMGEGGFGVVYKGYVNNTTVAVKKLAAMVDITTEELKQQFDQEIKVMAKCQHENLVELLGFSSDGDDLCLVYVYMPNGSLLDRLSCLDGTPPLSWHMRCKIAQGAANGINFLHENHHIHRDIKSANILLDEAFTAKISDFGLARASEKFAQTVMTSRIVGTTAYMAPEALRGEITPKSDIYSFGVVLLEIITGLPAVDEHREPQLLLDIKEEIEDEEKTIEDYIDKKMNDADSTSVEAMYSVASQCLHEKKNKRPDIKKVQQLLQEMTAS

As usually defined, the IC50 is the concentration needed to halve the response being measured. Read a high IC50 as weaker potency in that assay. Broadly, the kinetic solubility is solubility judged after dilution from a stock solution rather than from solid. Usually efflux ratio stands for a quotient of directional permeabilities that is used to spot active efflux. At IRAK4, `CC(C)Oc1cc2nc([C@]34CC[C@](C)(C3)OC4)cn2cc1C(=O)Nc1cccn([C@H]2C[C@@H]2F)c1=O` (single isomer, unassigned) [Example 119] yielded an IC50 of 0.7 nM. Besides, the solubility (kinetic) at 24 h in data set [1] is 79 µg/mL (≈ 164 µM). For the same compound, the Kpuu (unbound brain-to-plasma partition coefficient) in data set [2] turned out to be 0.73. The efflux ratio at 120 min, 1 μM on MDR1 came to 4.2.
For the compound `CC(C)Oc1nc2nc([C@@]34CC[C@@](C)(C3)OC4)cn2cc1C(=O)Nc1cccn([C@H]2C[C@@H]2C)c1=O` (single isomer, unassigned) [Example 149], the 50% inhibitory concentration (IC50) on IRAK4 turned out to be 0.4 nM. The compound further had a solubility (kinetic) at 24 h in data set [1] of 34.5 µg/mL (≈ 72.2 µM). For the same compound, the Kpuu (unbound brain-to-plasma partition coefficient) in data set [2] was found to be 1.34. Moreover, the efflux ratio at 120 min, 1 μM at MDR1 was determined as 2.8.
On the same counts, the results for `CC(C)Oc1nc2nc([C@]34CC[C@](C)(C3)OC4)cn2cc1C(=O)Nc1cccn([C@H]2C[C@H]2C)c1=O` (single isomer, unassigned) [Example 186, trifluoroacetate] are 0.2 nM, 64.7 µg/mL, 0.32 and 10.8.
Turning to `CC(C)Oc1nc2nc(C34CCC(C)(C3)OC4)cn2cc1C(=O)Nc1cccn([C@H]2C[C@H]2C)c1=O` (stereo in doubt) [Example 187, 7-isopropoxy-2-((1R,4S)-1-methyl-2-oxabicyclo[2.2.1]heptan-4-yl)-N-(1-((1S,2R)-2-methylcyclopropyl)-2-oxo-1,2-dihydropyridin-3-yl)imidazo[1,2-a]pyrimidine-6-carboxamide trifluoroacetate], on IRAK4, the IC50 came to 0.2 nM. For the same compound, in data set [1], the solubility (kinetic) at 24 h came to 55.1 µg/mL. Also, the Kpuu (unbound brain-to-plasma partition coefficient) in data set [2] was determined as 0.19. For the same compound, the efflux ratio at 120 min, 1 μM at MDR1 came to 10.9.
For `Cc1cnc2c(NC(=O)c3cn4cc(C56COC(C)(C5)C6)nc4cc3OC(C)C)cnn2c1` [Comparator 1B, 7-isopropoxy-2-(1-methyl-2-oxabicyclo[2.1.1]hexan-4-yl)-N-(6-methylpyrazolo[1,5-a]pyrimidin-3-yl)imidazo[1,2-a]pyridine-6-carboxamide, reference compound], in that order: 0.2 nM, 0.3 µg/mL (≈ 0.672 µM), 0.3 and 4.3.
For `CC(C)Oc1cc2nc(C34COC(C)(C3)C4)cn2cc1C(=O)Nc1cccn(C)c1=O` [Comparator 1D, 7-isopropoxy-N-(1-methyl-2-oxo-1,2-dihydropyridin-3-yl)-2-(1-methyl-2-oxabicyclo[2.1.1]hexan-4-yl)imidazo[1,2-a]pyridine-6-carboxamide, reference compound], in that order: 0.6 nM, 63.2 µg/mL (≈ 150 µM), 0.9 and 8.
On the same counts, the results for `CC(C)Oc1nc2nc([C@@]34CC[C@@](C)(C3)OC4)cn2cc1C(=O)Nc1cccn(C)c1=O` [Comparator 4D, 7-isopropoxy-N-(1-methyl-2-oxo-1,2-dihydropyridin-3-yl)-2-((1S,4R)-1-methyl-2-oxabicyclo[2.2.1]heptan-4-yl)imidazo[1,2-a]pyrimidine-6-carboxamide, reference compound] are 0.5 nM, 58.8 µg/mL (≈ 134 µM), 0.2 and 5.6.
`Cc1cnc2c(NC(=O)c3cn4cc(C56CCC(C)(CC5)OC6)nc4nc3OC(C)C)cnn2c1` [Comparator 6B, 7-isopropoxy-2-(1-methyl-2-oxabicyclo[2.2.2]octan-4-yl)-N-(6-methylpyrazolo[1,5-a]pyrimidin-3-yl)imidazo[1,2-a]pyrimidine-6-carboxamide, reference compound] returned a half-maximal inhibitory concentration (IC50) against IRAK4 of 0.2 nM. In addition, in data set [1], the kinetic solubility at 24 h was 7.2 µg/mL (≈ 15.1 µM). Further, in data set [2], the Kpuu (unbound brain-to-plasma partition coefficient) was found to be 0. The efflux ratio at 120 min, 1 μM at MDR1 was determined as 1.5.
For the compound `CC(C)Oc1nc2nc(C34CCC(C)(CC3)OC4)cn2cc1C(=O)Nc1ccn(C)n1` [Comparator 6C, 7-isopropoxy-N-(1-methyl-1H-pyrazol-3-yl)-2-(1-methyl-2-oxabicyclo[2.2.2]octan-4-yl)imidazo[1,2-a]pyrimidine-6-carboxamide, reference compound], half-maximal inhibition on IRAK4 (IC50) required 0.9 nM. This compound also returned a solubility (kinetic) at 24 h in data set [1] of 48.5 µg/mL (≈ 114 µM). Further, the Kpuu (unbound brain-to-plasma partition coefficient) in data set [2] is 0.2. For the same compound, on MDR1, the efflux ratio at 120 min, 1 μM was determined as 1.8.
On the same counts, the results for `CC(C)Oc1cc2nc(C34CCC(C)(CC3)OC4)cn2cc1C(=O)Nc1cccn(C2CC2)c1=O` [Example 3, N-(1-cyclopropyl-2-oxo-1,2-dihydropyridin-3-yl)-7-isopropoxy-2-(1-methyl-2-oxabicyclo[2.2.2]octan-4-yl)imidazo[1,2-a]pyridine-6-carboxamide] are 0.2 nM, 36 µg/mL (≈ 75.5 µM), 0.25 and 2.9.
For `CC(C)Oc1cc2nc(C34COC(C)(C3)C4)cn2cc1C(=O)Nc1cccn(C2CC2)c1=O` [Example 6, N-(1-cyclopropyl-2-oxo-1,2-dihydropyridin-3-yl)-7-isopropoxy-2-(1-methyl-2-oxabicyclo[2.1.1]hexan-4-yl)imidazo[1,2-a]pyridine-6-carboxamide], in that order: 0.1 nM, 58 µg/mL (≈ 129 µM), 0.27 and 7.9.
As to `CC(C)Oc1cc2nc(C34COC(CF)(C3)C4)cn2cc1C(=O)Nc1cccn(C2CC2)c1=O` [Example 9, N-(1-cyclopropyl-2-oxo-1,2-dihydropyridin-3-yl)-2-(1-(fluoromethyl)-2-oxabicyclo[2.1.1]hexan-4-yl)-7-isopropoxyimidazo[1,2-a]pyridine-6-carboxamide], it took 0.4 nM to reach half-maximal inhibition at IRAK4 (IC50). In addition, the kinetic solubility at 24 h in data set [1] stood at 70.6 µg/mL (≈ 151 µM). In data set [2], the Kpuu (unbound brain-to-plasma partition coefficient) is 0.18. Further, on MDR1, the efflux ratio at 120 min, 1 μM was found to be 9.7.
On the same counts, the results for `CC[C@H](C)Oc1cc2nc(C34COC(C)(C3)C4)cn2cc1C(=O)Nc1cccn(C2CC2)c1=O` [Example 19, (S)-7-(sec-butoxy)-N-(1-cyclopropyl-2-oxo-1,2-dihydropyridin-3-yl)-2-(1-methyl-2-oxabicyclo[2.1.1]hexan-4-yl)imidazo[1,2-a]pyridine-6-carboxamide] are 0.5 nM, 47 µg/mL (≈ 102 µM), 0.49 and 6.
With `CC12CC(c3cn4cc(C(=O)Nc5cccn(C6CC6)c5=O)c(OC5CCC5)cc4n3)(CO1)C2` [Example 27, 7-cyclobutoxy-N-(1-cyclopropyl-2-oxo-1,2-dihydropyridin-3-yl)-2-(1-methyl-2-oxabicyclo[2.1.1]hexan-4-yl)imidazo[1,2-a]pyridine-6-carboxamide], at IRAK4, half-maximal inhibition (IC50) was put at 0.6 nM. In data set [1], this compound displayed a solubility (kinetic) at 24 h of 65.7 µg/mL (≈ 143 µM). Moreover, the Kpuu (unbound brain-to-plasma partition coefficient) in data set [2] is 0.42. For the same compound, the efflux ratio at 120 min, 1 μM at MDR1 was 4.
As to `CC[C@H](C)Oc1nc2nc([C@@]34CC[C@@](C)(C3)OC4)cn2cc1C(=O)Nc1cccn(C2CC2)c1=O` [Example 49, 7-((S)-sec-butoxy)-N-(1-cyclopropyl-2-oxo-1,2-dihydropyridin-3-yl)-2-((1S,4R)-1-methyl-2-oxabicyclo[2.2.1]heptan-4-yl)imidazo[1,2-a]pyrimidine-6-carboxamide], at IRAK4, the IC50 was 0.4 nM. For the same compound, the solubility (kinetic) at 24 h in data set [1] stood at 56.1 µg/mL (≈ 117 µM). Also, the Kpuu (unbound brain-to-plasma partition coefficient) in data set [2] stood at 0.66. On MDR1, the efflux ratio at 120 min, 1 μM is 3.6.
For `CC(C)Oc1c(C(=O)Nc2cccn(C3CC3)c2=O)cn2cc(C34COC(C)(C3)C4)nc2c1F` [Example 61, N-(1-cyclopropyl-2-oxo-1,2-dihydropyridin-3-yl)-8-fluoro-7-isopropoxy-2-(1-methyl-2-oxabicyclo[2.1.1]hexan-4-yl)imidazo[1,2-a]pyridine-6-carboxamide], in that order: 2 nM, 65.8 µg/mL (≈ 141 µM), 0.45 and 2.8.
On the same counts, the results for `CC(C)Oc1nc2nc(C34CCC(C)(CC3)OC4)cn2cc1C(=O)Nc1cccn(C2CC2)c1=O` [Example 77, N-(1-cyclopropyl-2-oxo-1,2-dihydropyridin-3-yl)-7-isopropoxy-2-(1-methyl-2-oxabicyclo[2.2.2]octan-4-yl)imidazo[1,2-a]pyrimidine-6-carboxamide] are 0.3 nM, 7.2 µg/mL (≈ 15.1 µM), 0.61 and 2.7.
Regarding `CC(C)Oc1cc2nc(C34CC(C#N)(C3)C4)cn2cc1C(=O)Nc1cccn(C2CC2)c1=O` [Example 80, 2-(3-cyanobicyclo[1.1.1]pentan-1-yl)-N-(1-cyclopropyl-2-oxo-1,2-dihydropyridin-3-yl)-7-isopropoxyimidazo[1,2-a]pyridine-6-carboxamide], the IC50 at IRAK4 is 0.3 nM. Further, the kinetic solubility at 24 h in data set [1] stood at 9.5 µg/mL (≈ 21.4 µM). Further, the Kpuu (unbound brain-to-plasma partition coefficient) in data set [2] was determined as 0.9. For the same compound, at MDR1, the efflux ratio at 120 min, 1 μM worked out at 4.9.
Consider `CC(C)Oc1nc2nc(C34COC(C)(C3)C4)cn2cc1C(=O)Nc1cccn(C2CC2(F)F)c1=O` (stereo not shown) [Example 84, N-(1-(2,2-difluorocyclopropyl)-2-oxo-1,2-dihydropyridin-3-yl)-7-isopropoxy-2-(1-methyl-2-oxabicyclo[2.1.1]hexan-4-yl)imidazo[1,2-a]pyrimidine-6-carboxamide], for which half-maximal inhibition at IRAK4 (IC50) was put at 0.6 nM. For the same compound, in data set [1], the solubility (kinetic) at 24 h was found to be 37.7 µg/mL (≈ 77.7 µM). Further, the Kpuu (unbound brain-to-plasma partition coefficient) in data set [2] came out at 0.67. For the same compound, the efflux ratio at 120 min, 1 μM on MDR1 was 7.4.
